This assay has as its system P388 leukemia ip, CD2F1 mice, survival T/C. As to the kind of experiment: NCI In Vivo Anticancer Drug Screen. Data for tumor model P388 Leukemia (intraperitoneal) in CD2F1 (CDF1) mice. To be noted: endpoint: median survival time, higher = longer survival. In a few lines: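 Mice carrying the transplanted tumor received test compound or vehicle. Survival was recorded in each group, and the value is the treated-group measurement divided by that of the vehicle-treated control group.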

Where [1] appears, read: dose: 12.5 mg/kg/injection, schedule: Q01DX009 (ip), vehicle: saline with Tween-80.
[2] abbreviates: dose: 25.0 mg/kg/injection, schedule: Q01DX009 (ip), vehicle: saline with Tween-80.
Setting [3] is: dose: 60.0 mg/kg/injection, schedule: Q01DX005 (ip), vehicle: saline with Tween-80.
[4] abbreviates: dose: 120.0 mg/kg/injection, schedule: Q01DX005 (ip), vehicle: saline with Tween-80.
Setting [5] is: dose: 50.0 mg/kg/injection, schedule: Q01DX005 (ip), vehicle: saline.
The mark [6] stands for this setting: dose: 100.0 mg/kg/injection, schedule: Q01DX005 (ip), vehicle: saline.
Where [7] appears, read: dose: 50.0 mg/kg/injection, schedule: Q01DX009 (ip), vehicle: saline with Tween-80.
Where [8] appears, read: dose: 50.0 mg/kg/injection, schedule: Q01DX005 (ip), vehicle: Klucel (hydroxypropylcellulose) (HPC).
The mark [9] stands for this setting: dose: 100.0 mg/kg/injection, schedule: Q01DX005 (ip), vehicle: Klucel (hydroxypropylcellulose) (HPC).
Setting [10] is: dose: 200.0 mg/kg/injection, schedule: Q01DX005 (ip), vehicle: Klucel (hydroxypropylcellulose) (HPC).
Where [11] appears, read: dose: 50.0 mg/kg/injection, schedule: Q01DX009 (ip), vehicle: saline.
Where [12] appears, read: dose: 100.0 mg/kg/injection, schedule: Q01DX009 (ip), vehicle: saline.
The mark [13] stands for this setting: dose: 100.0 mg/kg/injection, schedule: Q01DX009 (ip), vehicle: saline with Tween-80.
Where [14] appears, read: dose: 200.0 mg/kg/injection, schedule: Q01DX009 (ip), vehicle: saline with Tween-80.
Setting [15] is: dose: 240.0 mg/kg/injection, schedule: Q01DX005 (ip), vehicle: saline with Tween-80.
Where [16] appears, read: dose: 50.0 mg/kg/injection, schedule: Q01DX005 (ip), vehicle: saline with Tween-80.
Setting [17] is: dose: 100.0 mg/kg/injection, schedule: Q01DX005 (ip), vehicle: saline with Tween-80.

The source of these data is PubChem BioAssay AID330 (DTP/NCI, 2004).

Several values for one entry are separate records, joined by “and”; a condition that tells them apart may be missing. Identical values can stand only once. Toxic doses and inconclusive results are not listed.

In the case of `C=Cc1ccc(NC(=O)CCn2ccc(N)nc2=O)cc1`, the T/C reads like this: (dose: 100.0 mg/kg/injection, schedule: Q01DX001 (ip), vehicle: saline with Tween-80) 102 % of control; (dose: 200.0 mg/kg/injection, schedule: Q01DX001 (ip), vehicle: saline with Tween-80) 102 % of control; (dose: 400.0 mg/kg/injection, schedule: Q01DX001 (ip), vehicle: saline with Tween-80) 103 % of control.
Consider `O=[N+]([O-])c1cc(F)ccc1O`, for which the T/C runs as follows: (dose: 6.25 mg/kg/injection, schedule: Q01DX009 (ip), vehicle: saline with Tween-80) 95 % of control; under setting [1], 100 % of control; under setting [2], 104 % of control.
For `CC(CN(C)C)C(/C=C/c1ccc(F)cc1)=N\Nc1ccccc1` (stereo unspecified), the T/C reads like this: under setting [3], 102 % of control; under setting [4], 122 % of control.
`CC(C)S(=O)(=O)c1ccc(Cl)cc1[N+](=O)[O-]`: the T/C (dose: 50.0 mg/kg/injection, schedule: Q01DX009 (ip), vehicle: Klucel (hydroxypropylcellulose) (HPC)) was 100 % of control; the T/C (dose: 100.0 mg/kg/injection, schedule: Q01DX009 (ip), vehicle: Klucel (hydroxypropylcellulose) (HPC)) was 99 % of control; the T/C (dose: 200.0 mg/kg/injection, schedule: Q01DX009 (ip), vehicle: Klucel (hydroxypropylcellulose) (HPC)) is 99 % of control.
Turning to `COS(=O)(=O)N(C)c1nc(N(C)C)nc(N(C)C)n1`, the T/C is, setting by setting: under setting [5], 96 % of control; under setting [6], 108 % of control.
With `C=C1N(c2nc(Cl)nc(Cl)n2)c2ccccc2C1(C)C`, the T/C reads like this: under setting [1], 113 % of control; under setting [2], 104 % of control; under setting [7], 124 % of control and 86 % of control.
Turning to `O=C(C#Cc1ccccc1)C1=Cc2ccccc2OC1`, the T/C was 94 % of control under setting [8], 95 % of control under setting [9] and 96 % of control under setting [10].
With `O=c1[nH]nc(-c2ccc(Cl)cc2)c2c1[nH]c1ccccc12`, the T/C reads like this: under setting [3], 98 % of control; under setting [4], 97 % of control.
For the molecule `CCOC(=CP(=O)(c1ccccc1)c1ccccc1)OCC`, the T/C was 106 % of control (dose: 50.0 mg/kg/injection, schedule: Q01DX005 (ip), vehicle: distilled water + Tween-80 + alcohol); 105 % of control (dose: 100.0 mg/kg/injection, schedule: Q01DX005 (ip), vehicle: distilled water + Tween-80 + alcohol); 100 % of control (dose: 200.0 mg/kg/injection, schedule: Q01DX005 (ip), vehicle: distilled water + Tween-80 + alcohol).
Consider `CCC(C)n1c(=O)cc(C)[nH]c1=O` (stereo unspecified), for which the T/C runs as follows: under setting [11], 101 % of control; under setting [12], 98 % of control; (dose: 200.0 mg/kg/injection, schedule: Q01DX009 (ip), vehicle: saline) 104 % of control.
Consider `CS(=O)(=O)Nc1ccc(Nc2c3ccccc3nc3cc([N+](=O)[O-])ccc23)cc1`, for which the T/C by setting is: (dose: 0.09 mg/kg/injection, schedule: Q01DX009 (ip), vehicle: saline with Tween-80) 121 % of control; (dose: 0.75 mg/kg/injection, schedule: Q01DX009 (ip), vehicle: saline with Tween-80) 169 % of control; (dose: 1.5 mg/kg/injection, schedule: Q01DX009 (ip), vehicle: saline with Tween-80) 169 % of control; (dose: 3.0 mg/kg/injection, schedule: Q01DX009 (ip), vehicle: saline with Tween-80) 177 % of control.
As to `O=C(/C=C/c1ccc(OCc2ccccc2)cc1)c1ccccc1[N+](=O)[O-]`, the T/C runs as follows: under setting [7], 104 % of control; under setting [13], 101 % of control; under setting [14], 92 % of control.
Turning to `N#Cc1c(-c2ccccc2)ssc1=S`, the T/C reads like this: under setting [3], 104 % of control; under setting [4], 103 % of control; under setting [15], 106 % of control.
On to `NNC(=O)c1ccccc1`, for which the T/C by setting is: under setting [2], 104 % of control; under setting [7], 113 % of control; (dose: 50.0 mg/kg/injection, schedule: Q04DX003 (ip), vehicle: saline with Tween-80) 95 % of control; (dose: 100.0 mg/kg/injection, schedule: Q04DX003 (ip), vehicle: saline with Tween-80) 100 % of control.
On to `C=CCC(O)CC1CC2CCCCN2O1` (stereo unspecified), for which the T/C (dose: 50.0 mg/kg/injection, schedule: Q04DX003 (ip), vehicle: saline) is 104 % of control; the T/C (dose: 100.0 mg/kg/injection, schedule: Q04DX003 (ip), vehicle: saline) was 104 % of control; the T/C (dose: 200.0 mg/kg/injection, schedule: Q04DX003 (ip), vehicle: saline) was 99 % of control.
Consider `Cc1ccc(NS(=O)(=O)c2ccc([N+](=O)[O-])cc2)c(C)c1`, for which the T/C is 100 % of control under setting [13]; 105 % of control under setting [14]; 115 % of control (dose: 400.0 mg/kg/injection, schedule: Q01DX009 (ip), vehicle: saline with Tween-80).
For `Cc1ccccc1NCC#N`, the T/C is 100 % of control under setting [1], 100 % of control under setting [2] and 104 % of control under setting [7].
With `CC(C)(C)C(=O)Nc1ccc2c(c1)C(=O)c1ccccc1C2=O`, the T/C under setting [16] is 100 % of control; the T/C under setting [17] was 87 % of control; the T/C (dose: 200.0 mg/kg/injection, schedule: Q01DX005 (ip), vehicle: saline with Tween-80) was 89 % of control.
With `Clc1ccc2c(NCCCCCCNc3ccnc4cc(Cl)ccc34)ccnc2c1`, the T/C was 97 % of control (dose: 6.25 mg/kg/injection, schedule: Q01DX005 (ip), vehicle: saline with Tween-80); 90 % of control (dose: 12.5 mg/kg/injection, schedule: Q01DX005 (ip), vehicle: saline with Tween-80); 99 % of control (dose: 25.0 mg/kg/injection, schedule: Q01DX005 (ip), vehicle: saline with Tween-80); 100 % of control under setting [16]; 109 % of control under setting [17].
For `CCN(CC)c1ccc([P+](=O)O)cc1`, the T/C reads like this: under setting [11], 108 % of control; under setting [12], 100 % of control.
On to `CCOC(=O)c1ccc(N=NN(C)CC2OC3OC(C)(C)OC3C2OC)cc1` (stereo unspecified), for which the T/C was 98 % of control (dose: 100.0 mg/kg/injection, schedule: Q04DX002 (ip), vehicle: saline with Tween-80); 98 % of control (dose: 200.0 mg/kg/injection, schedule: Q04DX002 (ip), vehicle: saline with Tween-80); 102 % of control (dose: 400.0 mg/kg/injection, schedule: Q04DX002 (ip), vehicle: saline with Tween-80).
On to `CC(C(=O)O)c1cccc2c(=O)cc(-c3ccccc3)oc12` (stereo unspecified), for which the T/C by setting is: under setting [8], 100 % of control; under setting [9], 87 % of control; under setting [10], 109 % of control.
As to `CCCCS(=N)(=O)CCC(N)P(=O)(O)O` (stereo unspecified), the T/C under setting [5] is 93 % of control; the T/C under setting [6] is 100 % of control; the T/C (dose: 200.0 mg/kg/injection, schedule: Q01DX005 (ip), vehicle: saline) was 95 % of control.
As to `COc1ccc(C(OC)C2CCCCC2N2CCCCC2)cc1` (stereo unspecified), the T/C (dose: 0.5 mg/kg/injection, schedule: Q01DX009 (ip), vehicle: Klucel (hydroxypropylcellulose) (HPC)) is 107 % of control; the T/C (dose: 1.0 mg/kg/injection, schedule: Q01DX009 (ip), vehicle: Klucel (hydroxypropylcellulose) (HPC)) is 114 % of control; the T/C (dose: 2.0 mg/kg/injection, schedule: Q01DX009 (ip), vehicle: Klucel (hydroxypropylcellulose) (HPC)) was 107 % of control; the T/C (dose: 4.0 mg/kg/injection, schedule: Q01DX009 (ip), vehicle: Klucel (hydroxypropylcellulose) (HPC)) is 109 % of control.
For the molecule `C[CH2][Ge]([CH2]C)[CH2]C.C[CH2][Ge]([CH2]C)[CH2]C(=O)OC`, the T/C was 99 % of control under setting [8], 100 % of control under setting [9] and 100 % of control under setting [10].
For the molecule `CSc1nc2cc(S(=O)(=O)C(F)F)ccc2s1`, the T/C reads like this: (dose: 6.25 mg/kg/injection, schedule: Q01DX009 (ip), vehicle: Klucel (hydroxypropylcellulose) (HPC)) 94 % of control; (dose: 12.5 mg/kg/injection, schedule: Q01DX009 (ip), vehicle: Klucel (hydroxypropylcellulose) (HPC)) 94 % of control.
As to `O=C(O)[C@H](Cc1ccccc1)N1C(=O)N[C@@H](Cc2ccccc2)C1=O`, the T/C under setting [3] is 96 % of control, the T/C under setting [4] was 104 % of control and the T/C under setting [15] is 99 % of control.
